Assay results published in patent US12006330B2, “Substituted macrocyclic compounds and related methods of treatment” (Alkermes, Inc., priority 2020, dated 2024).
One block for each molecule: values may come before it.

Legend:
Type in all cases: in vitro ADME
MDR1 = experiment: MDCK-MDR1 permeability assay; settings: dog, MDCK-MDR1, MDCK-MDR1 cells; for efflux ratio at 2 h, 3 μM: Papp B→A divided by Papp A→B, read-out: Efflux ratio (ER); for Papp A→B at 2 h, 3 μM: test compound 3 μM, 2 hours at 37 degrees C, apical to basolateral
Procedure, shortened: (§1)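 Test compound at 3 μM in HBSS was dosed apical-to-basolateral (with 100 μM Lucifer Yellow) and basolateral-to-apical across MDCK-MDR1 monolayers at 37 °C for 2 h. Receiver and donor samples were quantified by LC-MS/MS. Papp = dQ/dt×1/A×C0, efflux ratio = Papp(B→A)/Papp(A→B), and percent recovery was also derived.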

[1] = Hepatocytes stability assay (human hepatocytes); settings: both sexes, human, cryopreserved hepatocytes, cryopreserved human hepatocytes (pool of 50 mixed gender); 1 μM test compound; 1×10^6 cell/mL; 37 degrees C; read-out: CLint (μL/min/million cells)
Procedure, shortened: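 Compound at 1 μM (0.1% DMSO) was incubated with cryopreserved pooled human hepatocytes, 1×10^6 cells/mL in Krebs-Henseleit buffer, at 37 °C, sampled up to 240 min. Parent depletion by LC-MS/MS; half-life from first-order decay gave CLint, scaled to hepatic clearance by well-stirred model (fu assumed 1) and extraction ratio.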

MDCK-MDR1 cells = experiment: MDCK-MDR1 permeability assay; settings: MDCK-MDR1 cells; test compound 3 μM; 2 hours at 37 degrees C; apical to basolateral
Procedure, shortened: as §1

SMILES: CC(C)S(=O)(=O)N[C@H]1CCN2C(=O)COc3c(F)cc(F)cc3[C@H]3CC[C@H](CC3)OC[C@@H]12 [Compound 29]
efflux ratio at 2 h, 3 μM (MDR1): 2.5
Papp A→B at 2 h, 3 μM (MDR1): 6.4 ×10⁻⁶ cm/s
hepatocyte CLint at 1 μM [1]: 15 µL/min/1e6 cells

SMILES: O=C1COc2cccc(F)c2[C@H]2CC[C@H](CC2)OCC2[C@@H](NS(=O)(=O)C(F)(F)F)CCCN12 (stereo in doubt) [Compound 95]
efflux ratio at 2 h, 3 μM (MDR1): 15
Papp A→B at 2 h, 3 μM (MDR1): 2 ×10⁻⁶ cm/s
hepatocyte CLint at 1 μM [1]: 3.3 µL/min/1e6 cells

SMILES: O=C1COc2nccnc2[C@H]2CC[C@H](CC2)OCC2[C@@H](NS(=O)(=O)C(F)(F)F)CCCN12 (stereo in doubt) [Compound 98]
efflux ratio at 2 h, 3 μM (MDR1): 57
Papp A→B at 2 h, 3 μM (MDR1): 0.52 ×10⁻⁶ cm/s
hepatocyte CLint at 1 μM [1]: < 1.4 µL/min/1e6 cells

SMILES: Cc1ccnc2c1[C@H]1CC[C@H](CC1)OCC1[C@@H](NS(=O)(=O)C(F)(F)F)CCN1C(=O)CO2 (stereo in doubt) [Compound 94]
efflux ratio at 2 h, 3 μM (MDR1): 4.7
Papp A→B at 2 h, 3 μM (MDR1): 8.7 ×10⁻⁶ cm/s
hepatocyte CLint at 1 μM [1]: < 1.9 µL/min/1e6 cells

SMILES: Cc1cccc2c1[C@H]1CC[C@H](CC1)OC[C@H]1[C@@H](NS(C)(=O)=O)CCN1C(=O)CO2 [Compound 20]
efflux ratio at 2 h, 3 μM (MDR1): 6.4
Papp A→B at 2 h, 3 μM (MDR1): 6.8 ×10⁻⁶ cm/s
hepatocyte CLint at 1 μM [1]: 27 µL/min/1e6 cells

SMILES: Cc1ncnc2c1[C@H]1CC[C@H](CC1)OCC1[C@@H](NS(=O)(=O)C(F)(F)F)CCCN1C(=O)CO2 (stereo in doubt) [Compound 99]
efflux ratio at 2 h, 3 μM (MDR1): 52
Papp A→B at 2 h, 3 μM (MDR1): 0.46 ×10⁻⁶ cm/s
hepatocyte CLint at 1 μM [1]: < 1.4 µL/min/1e6 cells

SMILES: O=C1COc2ncccc2[C@H]2CC[C@H](CC2)OCC2[C@@H](NS(=O)(=O)C(F)(F)F)CCCN12 (stereo in doubt) [Compound 91]
efflux ratio at 2 h, 3 μM (MDR1): 47
Papp A→B at 2 h, 3 μM (MDR1): 0.96 ×10⁻⁶ cm/s
hepatocyte CLint at 1 μM [1]: 4.8 µL/min/1e6 cells

SMILES: Cc1ncnc2c1[C@H]1CC[C@H](CC1)OCC1[C@@H](NS(C)(=O)=O)CCCN1C(=O)CO2 (stereo in doubt) [Compound 27]
Papp A → B (10^−6 cm/s) (MDCK-MDR1 cells): 0.33 10^−6 cm/s
efflux ratio at 2 h, 3 μM (MDR1): 48
hepatocyte CLint at 1 μM [1]: < 1.9 µL/min/1e6 cells

Next, values leading:

efflux ratio at 2 h, 3 μM (MDR1): > 100
Papp A→B at 2 h, 3 μM (MDR1): 0.21 ×10⁻⁶ cm/s
hepatocyte CLint at 1 μM [1]: 1.5 µL/min/1e6 cells
SMILES: CC(C)(O)C(=O)N1CC[C@H](NS(C)(=O)=O)[C@@H]1Cc1cccc(-c2cc(F)cc(F)c2)c1F [Reference Compound B, N-((2S,3S)-1-(2-hydroxy-2-methylpropanoy1)-2-((2,3′,5′-trifluorobipheny1-3-yl)methyl)pyrrolidin-3-yl)methanesulfonamide, reference compound]

efflux ratio at 2 h, 3 μM (MDR1): 1.3
Papp A→B at 2 h, 3 μM (MDR1): 12 ×10⁻⁶ cm/s
hepatocyte CLint at 1 μM [1]: 2.5 µL/min/1e6 cells
SMILES: O=C1COc2ccccc2[C@H]2CC[C@H](CC2)OCC2[C@@H](NS(=O)(=O)C(F)(F)F)CCN12 (stereo in doubt) [Compound 100]

efflux ratio at 2 h, 3 μM (MDR1): 5.9
Papp A→B at 2 h, 3 μM (MDR1): 5 ×10⁻⁶ cm/s
hepatocyte CLint at 1 μM [1]: 76 µL/min/1e6 cells
SMILES: COC(=O)N1CCC[C@H](NS(C)(=O)=O)[C@@H]1CO[C@H]1CC[C@@H](c2ccccc2)CC1 [Reference Compound A, methyl (2R,3S)-3-((methylsulfonyl)amino)-2-(((cis-4-phenylcyclohexyl)oxy)methyl)-piperidine-l-carboxylate, reference compound]
